From patent publication US6506766B1 (Abbott Laboratories, priority 1998, dated 2003) come the findings set out here.

Experiment [1] concerns the target T1, human glucocorticoid receptor-α [GRX] isoform (Homo sapiens, UniProt P04150).
T1 construct: host or cells: insect SF21 cells (baculovirus)
T1 sequence (P04150 1-777): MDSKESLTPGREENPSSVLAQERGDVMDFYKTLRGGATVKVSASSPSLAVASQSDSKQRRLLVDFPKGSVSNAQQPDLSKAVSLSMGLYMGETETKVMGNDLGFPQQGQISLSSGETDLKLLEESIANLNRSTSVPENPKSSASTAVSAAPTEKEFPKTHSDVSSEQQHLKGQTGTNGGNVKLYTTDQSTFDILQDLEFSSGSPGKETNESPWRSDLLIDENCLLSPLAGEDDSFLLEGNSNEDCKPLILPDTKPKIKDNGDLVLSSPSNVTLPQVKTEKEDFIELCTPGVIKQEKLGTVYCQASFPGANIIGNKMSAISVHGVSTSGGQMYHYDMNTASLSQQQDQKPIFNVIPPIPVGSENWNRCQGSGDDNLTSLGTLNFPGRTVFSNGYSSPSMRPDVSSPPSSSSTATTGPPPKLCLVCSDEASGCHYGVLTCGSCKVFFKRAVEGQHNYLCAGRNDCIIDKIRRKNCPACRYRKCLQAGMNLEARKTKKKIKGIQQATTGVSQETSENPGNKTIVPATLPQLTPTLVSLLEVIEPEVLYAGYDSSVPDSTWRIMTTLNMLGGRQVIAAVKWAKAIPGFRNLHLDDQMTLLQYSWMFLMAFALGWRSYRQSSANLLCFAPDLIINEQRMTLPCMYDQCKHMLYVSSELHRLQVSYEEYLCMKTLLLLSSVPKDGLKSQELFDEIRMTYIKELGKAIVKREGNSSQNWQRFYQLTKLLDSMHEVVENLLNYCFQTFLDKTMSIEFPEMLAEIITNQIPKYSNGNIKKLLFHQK
Description: Radioligand binding with human glucocorticoid receptor cytosol ([3H]-dexamethasone competition). As to conditions: read-out: Ki (nM) GR.

Experiment [2] has as its target T2, human progesterone receptor-A [PRA] isoform (Homo sapiens, UniProt P06401).
T2 construct: host or cells: insect SF21 cells (baculovirus)
T2 sequence (P06401 1-769 isoform P06401-2): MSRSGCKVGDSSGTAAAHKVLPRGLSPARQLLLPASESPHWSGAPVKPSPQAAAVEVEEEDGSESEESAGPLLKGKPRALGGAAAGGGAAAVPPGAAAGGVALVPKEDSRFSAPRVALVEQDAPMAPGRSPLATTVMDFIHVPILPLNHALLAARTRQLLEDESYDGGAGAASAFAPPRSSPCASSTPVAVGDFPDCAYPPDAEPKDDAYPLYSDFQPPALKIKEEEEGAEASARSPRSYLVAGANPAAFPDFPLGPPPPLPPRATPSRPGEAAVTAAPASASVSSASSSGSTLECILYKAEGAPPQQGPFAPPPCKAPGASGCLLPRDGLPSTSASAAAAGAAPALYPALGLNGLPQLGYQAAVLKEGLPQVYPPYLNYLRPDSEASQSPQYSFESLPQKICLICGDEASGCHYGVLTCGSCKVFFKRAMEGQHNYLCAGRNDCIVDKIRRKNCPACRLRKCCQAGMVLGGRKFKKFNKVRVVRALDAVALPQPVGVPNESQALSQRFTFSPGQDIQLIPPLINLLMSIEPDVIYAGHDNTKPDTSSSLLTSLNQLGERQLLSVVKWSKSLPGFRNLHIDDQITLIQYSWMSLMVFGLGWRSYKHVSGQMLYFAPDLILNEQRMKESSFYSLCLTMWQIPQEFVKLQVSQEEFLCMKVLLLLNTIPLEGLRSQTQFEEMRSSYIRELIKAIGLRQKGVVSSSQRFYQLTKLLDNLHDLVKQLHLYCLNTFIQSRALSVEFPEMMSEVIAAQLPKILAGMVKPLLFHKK
Description: Radioligand binding with human progesterone receptor cytosol ([3H]-progesterone competition). As to conditions: read-out: Ki (nM) PR.

[3] abbreviates: GRX cytosol expressed in insect SF21 cells, [3H]-Dex ~0.9 nM, 4° C. overnight, Ki by Cheng-Prusoff, KL ~[…].
Setting [4] is: PRA cytosol expressed in insect SF21 cells, [3H]Prog ~0.8 nM, 4° C. overnight, Ki by Cheng-Prusoff, KL ~4.5 nM.

Like-named read-outs stand apart in the source and are kept apart here.

With `CC1=CC(C)(C)Nc2ccc3c(c21)C(C(C)C)Oc1ccc(O)c(Cl)c1-3` (centres unmarked) [Example 405, 2,5-Dihydro-9-hydroxy-10-chloro-2,2,4-trimethyl-5-isopropyl-1H-[1]benzopyrano[3,4-f]quinoline], the results for the inhibitory constant (Ki) in experiment [1] (setting [3]) and in experiment [2] (setting [4]) were 1.1 nM and 75.1 nM, respectively.
As to `COc1c(O)ccc2c1-c1ccc3c(c1C(=Cc1ccccc1)O2)C(C)=CC(C)(C)N3` [Example 406, 9-Hydroxy-10-methoxy-5-(phenylmethylene)-2,2,4-trimethyl-1H-2,5-dihydro-[1]benzopyrano[3,4-f]quinoline], the Ki in experiment [1] (setting [3]) is 2.3 nM; in experiment [2] (setting [4]) it was 97.9 nM.
For `CCCCC1Oc2ccc(O)c(Cl)c2-c2ccc3c(c21)C(C)=CC(C)(C)N3` (centres unmarked) [Example 407, 2,5-Dihydro-9-hydroxy-10-chloro-2,2,4-trimethyl-5-butyl-1H-[1]benzopyrano[3,4-f]quinoline], the Ki was 1.8 nM in experiment [1] (setting [3]) and 16.4 nM in experiment [2] (setting [4]).
`COc1c(O)ccc2c1-c1ccc3c(c1C(c1nccs1)O2)C(C)=CC(C)(C)N3` (centres unmarked) [Example 408, 2,5-Dihydro-9-hydroxy-10-methoxy-2,2,4-trimethyl-5-(1-thiazol-2-yl)-1H-[1]benzopyrano[3,4-f]quinoline]: the values for the Ki in experiment [1] (setting [3]) and in experiment [2] (setting [4]) were 112 nM and 14100 nM, respectively.
The matching figures for `CC1=CC(C)(C)Nc2ccc3c(c21)C(CC(C)C)Oc1ccc(O)c(Cl)c1-3` (centres unmarked) [Example 409, 2,5-Dihydro-9-hydroxy-10-chloro-2,2,4-trimethyl-5-(2-methylpropyl)-1H-[1]benzopyrano[3,4-f]quinoline]: 2.7 nM and 42 nM.
On to `C=CCC1Oc2ccc(CO)c(Cl)c2-c2ccc3c(c21)C(C)=CC(C)(C)N3` (centres unmarked) [Example 410, 2,5-Dihydro-9-hydroxymethyl-10-chloro-2,2,4-trimethyl-5-allyl-1H-[1]benzopyrano[3,4-f]quinoline], for which the Ki in experiment [1] (setting [3]) turned out to be 1.1 nM; in experiment [2] (setting [4]), 25.7 nM.
With `COc1c(O)ccc2c1-c1ccc3c(c1C(=Cc1cccc(F)c1)O2)C(C)=CC(C)(C)N3` [Example 412, 9-Hydroxy-10-methoxy-5-([3-fluorophenyl]methylene)-2,2,4-trimethyl-1H-2,5-dihydro-[1]benzopyrano[3,4-f]quinoline], the Ki in experiment [1] (setting [3]) came out at 9 nM; in experiment [2] (setting [4]), 222 nM.
The matching figures for `CC1=CC(C)(C)Nc2ccc3c(c21)C(=Cc1ccccn1)Oc1ccc(O)c(Cl)c1-3` [Example 413, 9-Hydroxy-10-chloro-5-([2-pyridyl]methylene)-2,2,4-trimethyl-1H-2,5-dihydro-[1]benzopyrano[3,4-f]quinoline]: 0.22 nM and 60.8 nM.
Consider `COc1c(O)ccc2c1-c1ccc3c(c1C(c1cc(Cl)cc(Cl)c1)O2)C(C)=CC(C)(C)N3` (centres unmarked) [Example 416, 2,5-Dihydro-9-hydroxy-10-methoxy-2,2,4-trimethyl-5-(3,5-dichlorophenyl)-1H-[1]benzopyrano[3,4-f]quinoline], for which the inhibitory constant (Ki) in experiment [1] (setting [3]) stood at 3.1 nM; in experiment [2] (setting [4]), 394 nM.
With `CC1=C[C@@H]([C@@H]2Oc3ccc(O)c(Cl)c3-c3ccc4c(c32)C(C)=CC(C)(C)N4)CCC1` [Example 417, (−)(5S,3′S)2,5-Dihydro-9-hydroxy-10-chloro-2,2,4-trimethyl-5-(1-methylcyclohexen-3-yl)-1H-[1]benzopyrano[3,4-f]quinoline], the Ki in experiment [1] (setting [3]) was found to be 3 nM; in experiment [2] (setting [4]), 10.5 nM.
For `CC1=C[C@H]([C@@H]2Oc3ccc(O)c(Cl)c3-c3ccc4c(c32)C(C)=CC(C)(C)N4)CCC1` [Example 418], the inhibition constant (Ki) in experiment [1] (setting [3]) was determined as 1.4 nM; in experiment [2] (setting [4]), 2.1 nM.
For `CC1=C[C@@H]([C@H]2Oc3ccc(O)c(Cl)c3-c3ccc4c(c32)C(C)=CC(C)(C)N4)CCC1` [Example 419, (+)(5R,3′S)2,5-Dihydro-9-hydroxy-10-chloro-2,2,4-trimethyl-5-(1-methylcyclohexen-3-yl)-1H-[1]benzopyrano[3,4-f]quinoline] the same measures were 56.9 nM and 286 nM.
For `CC1=C[C@H]([C@H]2Oc3ccc(O)c(Cl)c3-c3ccc4c(c32)C(C)=CC(C)(C)N4)CCC1` [Example 420] the same measures were 125 nM and 2400 nM.
Consider `COc1c(OC(=O)CCC(=O)N(C)C)ccc2c1-c1ccc3c(c1C(C(C)C)O2)C(C)=CC(C)(C)N3` (centres unmarked) [Example 423, 2,5-Dihydro-9-(4-N,N-dimethylamino-4-oxo-butanoyloxy)-10-methoxy-2,2,4-trimethyl-5-(1-methylethyl)-1H-[1]benzopyrano[3,4-f]quinoline], for which the Ki in experiment [1] (setting [3]) came to 0.67 nM; in experiment [2] (setting [4]), 8180 nM.
Turning to `COc1c(OC(=O)CCC(=O)N(C)C)ccc2c1-c1ccc3c(c1C(Cc1ccccc1)O2)C(C)=CC(C)(C)N3` (centres unmarked) [Example 424, 2,5-Dihydro-9-(4-N,N-dimethylamino-4-oxo-butanoyloxy)-10-methoxy-5-(phenylmethyl)-2,2,4-trimethyl-1H-[1]benzopyrano[3,4-f]quinoline], the Ki in experiment [1] (setting [3]) is 0.84 nM; in experiment [2] (setting [4]), 1950 nM.
The matching figures for `COc1c(OC(=O)CCC(=O)N(C)C)ccc2c1-c1ccc3c(c1C(c1cccs1)O2)C(C)=CC(C)(C)N3` (centres unmarked) [Example 425, 2,5-Dihydro-9-(4-N,N-dimethylamino-4-oxo-butanoyloxy)-10-methoxy-2,2,4-trimethyl-5-(2-thienyl)-1H-[1]benzopyrano[3,4-f]quinoline]: 0.35 nM and 3940 nM.
In the case of `C=CCC1Oc2ccc(OC(=O)CCCN(C)C)c(OC)c2-c2ccc3c(c21)C(C)=CC(C)(C)N3` (centres unmarked) [Example 426, 2,5-Dihydro-9-(4-N,N-dimethylaminobutanoyloxy)-10-methoxy-2,2,4-trimethyl-5-(2-propenyl)-1H-[1]benzopyrano[3,4-f]quinoline], the Ki in experiment [1] (setting [3]) stood at 0.85 nM; in experiment [2] (setting [4]), 110 nM.
On to `C=CCC1Oc2ccc(OC(=O)NCC(=O)OCC)c(OC)c2-c2ccc3c(c21)C(C)=CC(C)(C)N3` (centres unmarked) [Example 427, 9-(2-Ethoxy-2-oxo-ethylaminocarbonyl)-oxy-10-methoxy-5-(3-propenyl)-2,2,4-trimethyl-1H-2,5-dihydro-[1]benzopyrano[3,4-f]quinoline], for which the Ki in experiment [1] was found to be 7.8 nM; in experiment [2] it was 2200 nM.
On to `COc1c(O)ccc2c1-c1ccc3c(c1C(=Cc1ccccc1)O2)C(C)=CC(C)(C)N3` [Example 430, 9-Hydroxy-10-methoxy-5-(phenylmethylene)-2,2,4-trimethyl-1H-2,5-dihydro-[1]benzopyrano[3,4-f]quinoline], for which the Ki worked out at 4.8 nM in experiment [1] (setting [3]) and 281 nM in experiment [2] (setting [4]).
In the case of `C=CCC1Oc2ccc(OC(=S)N(C)C)c(OC)c2-c2ccc3c(c21)C(C)=CC(C)(C)N3` (centres unmarked) [Example 431, 9-(Dimethylaminothiocarbonyl)-oxy-10-methoxy-5-(3-propenyl)-2,2,4-trimethyl-1H-2,5-dihydro-[1]benzopyrano[3,4-f]quinoline], the Ki in experiment [1] (setting [3]) was 113 nM; in experiment [2] (setting [4]) it was at least 10000 nM.
Take `CC1=CC(C)(C)Nc2ccc3c(c21)C(c1cc(F)c(F)c(F)c1)Oc1ccc(O)c(Cl)c1-3` (centres unmarked) [Example 435, 2,5-Dihydro-9-hydroxy-10-chloro-2,2,4-trimethyl-5-(3,4,5-trifluorophenyl)-1H-[1]benzopyrano[3,4-f]quinoline]: the inhibitory constant (Ki) worked out at 120 nM in experiment [1] (setting [3]) and 734 nM in experiment [2] (setting [4]).
Take `C=CCC1Oc2ccc(OCSC)c(OC)c2-c2ccc3c(c21)C(C)=CC(C)(C)N3` (centres unmarked) [Example 436, 2,5-Dihydro-9-methylthiomethoxy-10-methoxy-2,2,4-trimethyl-5-allyl-1H-[1]benzopyrano[3,4-f]quinoline]: the Ki in experiment [1] (setting [3]) was 18.8 nM; in experiment [2] (setting [4]), 5920 nM.
